Measurements taken from patent US20150190407A1, “METHODS FOR TREATMENT OF POSTOPERATIVE INFLAMMATION WITH REDUCED INTRAOCULAR PRESSURE” (Insite Vision Incorporated, priority 2014, published 2015).
Where two headings read alike, the source gives them in different places.

What was measured:
[1] = cited from earlier work
[2] = after 8 days of treatment for inflammation following ocular surgery; cited from earlier work
[3] = Release from the vehicle in the rabbit eye, measured in aqueous humor; assay type: in vivo; conditions: in the ophthalmically acceptable vehicle
Method: The viscous gels that result upon administration of the aqueous suspensions of the present disclosure to the eye have residence times in the eye ranging from about 2 to about 12 hours, e.g., from about 3 to about 6 hours. The active ingredients contained in these ophthalmically acceptable vehicles are released from the gels at rates that depend on such factors as the active ingredient itself and its physical form, the extent of drug loading and the pH of the system, as well as on any drug delivery adjuvants, such as ion exchange resins compatible with the ocular surface, which can also be present.

For `C[C@@H]1C[C@H]2[C@@H]3CCC4=CC(=O)C=C[C@]4(C)[C@@]3(F)[C@@H](O)C[C@]2(C)[C@@]1(O)C(=O)CO` [dexamethasone], the “rise in IOP (published data)” value ([1]; administered without the benefit of a sustained release vehicle) is given as 3-4 mmHg.

In the case of `C[C@@H]1C[C@H]2[C@@H]3CCC4=CC(=O)C=C[C@]4(C)[C@@]3(F)[C@@H](O)C[C@]2(C)[C@@]1(O)C(=O)COP(=O)(O)O` [dexamethasone phosphate], the “increase of intraocular pressure” value ([1]; after one week) is listed as 1-2 mmHg, the “increase of intraocular pressure” value ([1]; after six weeks) is listed as 5-6 mmHg and the “increase of intraocular pressure” value ([1]; after two weeks) is listed as 3-4 mmHg. The “median intraocular pressure vs placebo (saline 0.9%)” value [2] was “significantly higher”.

In the case of `CC(=O)[C@@]1(O)CC[C@H]2[C@@H]3C[C@H](C)C4=CC(=O)C=C[C@]4(C)[C@@]3(F)[C@@H](O)C[C@@]21C` [fluorometholone], the “release rates in the rabbit eye, as measured by fluorometholone contained in the aqueous humor” value [3] is reported as “in excess of four hours”.
